Measured values: PubChem BioAssay (NCI)
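Assay format: 96-well plates, 48-hour exposure. GI50: concentration for 50% inhibition of growth. TGI is the concentration that stops growth completely.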

What was measured:
Test in all cases: NCI-60 cell line screen, 48 h
SNB-19 CNS = tested on: SNB-19 CNS
NCI-H23 lung = tested on: NCI-H23 lung
786-0 renal = tested on: 786-0 renal
A498 renal = tested on: A498 renal
SR leukemia = tested on: SR leukemia
MOLT-4 leukemia = tested on: MOLT-4 leukemia
UACC-257 melanoma = tested on: UACC-257 melanoma
SK-OV-3 ovarian = tested on: SK-OV-3 ovarian
SK-MEL-28 melanoma = tested on: SK-MEL-28 melanoma
OVCAR-4 ovarian = tested on: OVCAR-4 ovarian
MDA-MB-231 breast = tested on: MDA-MB-231 breast
SF-268 CNS = tested on: SF-268 CNS
UACC-62 melanoma = tested on: UACC-62 melanoma
EKVX NSCLC = tested on: EKVX NSCLC
SK-MEL-5 melanoma = tested on: SK-MEL-5 melanoma
NCI-H460 lung = tested on: NCI-H460 lung
KM12 colon = tested on: KM12 colon
OVCAR-3 ovarian = tested on: OVCAR-3 ovarian
HL-60(TB) leukemia = tested on: HL-60(TB) leukemia
UO-31 renal = tested on: UO-31 renal
SK-MEL-2 melanoma = tested on: SK-MEL-2 melanoma
CCRF-CEM leukemia = tested on: CCRF-CEM leukemia
COLO 205 colon = tested on: COLO 205 colon
MDA-MB-435 = tested on: MDA-MB-435
NCI/ADR-RES ovarian = tested on: NCI/ADR-RES ovarian
HCC-2998 colon = tested on: HCC-2998 colon
PC-3 prostate = tested on: PC-3 prostate
SN12C renal = tested on: SN12C renal
U251 CNS = tested on: U251 CNS
K-562 leukemia = tested on: K-562 leukemia
SF-539 CNS = tested on: SF-539 CNS
A549 NSCLC = tested on: A549 NSCLC
HOP-92 NSCLC = tested on: HOP-92 NSCLC
NCI-H522 lung = tested on: NCI-H522 lung
T-47D breast = tested on: T-47D breast
OVCAR-8 ovarian = tested on: OVCAR-8 ovarian
SF-295 CNS = tested on: SF-295 CNS
ACHN renal = tested on: ACHN renal
HCT-116 colon = tested on: HCT-116 colon
BT-549 breast = tested on: BT-549 breast
MALME-3M melanoma = tested on: MALME-3M melanoma
MCF7 breast = tested on: MCF7 breast
CAKI-1 renal = tested on: CAKI-1 renal
HS 578T breast = tested on: HS 578T breast
TK-10 renal = tested on: TK-10 renal
SNB-75 CNS = tested on: SNB-75 CNS
NCI-H226 lung = tested on: NCI-H226 lung
OVCAR-5 ovarian = tested on: OVCAR-5 ovarian
DU-145 prostate = tested on: DU-145 prostate
HT29 colon = tested on: HT29 colon
RPMI-8226 leukemia = tested on: RPMI-8226 leukemia
M14 melanoma = tested on: M14 melanoma
IGROV1 ovarian = tested on: IGROV1 ovarian
SW-620 colon = tested on: SW-620 colon
HOP-62 NSCLC = tested on: HOP-62 NSCLC
HCT-15 colon = tested on: HCT-15 colon

Structure (SMILES): COc1ccc2nc(-c3ccccc3)cc(Nc3ccc(/C(C)=N/O)cc3)c2c1
- GI50 (SNB-19 CNS): 5.38 µM
- TGI (SNB-19 CNS): > 100 µM
- GI50 (NCI-H23 lung): 2.51 µM
- TGI (NCI-H23 lung): > 20.9 µM
- GI50 (786-0 renal): 2.09 µM
- TGI (786-0 renal): 3.7 µM
- GI50 (A498 renal): 2.03 µM
- TGI (A498 renal): 4.98 µM
- GI50 (SR leukemia): 3.82 µM
- TGI (SR leukemia): > 100 µM
- GI50 (MOLT-4 leukemia): 3.73 µM
- TGI (MOLT-4 leukemia): > 100 µM
- GI50 (UACC-257 melanoma): 2.88 µM
- TGI (UACC-257 melanoma): 7.78 µM
- GI50 (SK-OV-3 ovarian): 2.15 µM
- TGI (SK-OV-3 ovarian): 5.22 µM
- GI50 (SK-MEL-28 melanoma): 3.13 µM
- TGI (SK-MEL-28 melanoma): > 100 µM
- GI50 (OVCAR-4 ovarian): 3.9 µM
- TGI (OVCAR-4 ovarian): > 100 µM
- GI50 (MDA-MB-231 breast): 0.733 µM
- TGI (MDA-MB-231 breast): 2.07 µM
- GI50 (SF-268 CNS): 3.39 µM
- TGI (SF-268 CNS): > 23 µM
- GI50 (UACC-62 melanoma): 2.1 µM
- TGI (UACC-62 melanoma): 4.65 µM
- GI50 (EKVX NSCLC): 3.02 µM
- TGI (EKVX NSCLC): > 100 µM
- GI50 (SK-MEL-5 melanoma): 2.62 µM
- TGI (SK-MEL-5 melanoma): 7.57 µM
- GI50 (NCI-H460 lung): 2.8 µM
- TGI (NCI-H460 lung): > 23.3 µM
- GI50 (KM12 colon): 3.74 µM
- TGI (KM12 colon): > 100 µM
- GI50 (OVCAR-3 ovarian): 2.87 µM
- TGI (OVCAR-3 ovarian): > 100 µM
- GI50 (HL-60(TB) leukemia): 2.88 µM
- TGI (HL-60(TB) leukemia): > 100 µM
- GI50 (UO-31 renal): 41.3 µM
- TGI (UO-31 renal): > 100 µM
- GI50 (SK-MEL-2 melanoma): 88.4 µM
- TGI (SK-MEL-2 melanoma): > 100 µM
- GI50 (CCRF-CEM leukemia): 3.48 µM
- TGI (CCRF-CEM leukemia): > 100 µM
- GI50 (COLO 205 colon): 4.91 µM
- TGI (COLO 205 colon): > 100 µM
- GI50 (MDA-MB-435): 3.4 µM
- GI50 (NCI/ADR-RES ovarian): 2.75 µM
- TGI (NCI/ADR-RES ovarian): > 24.6 µM
- GI50 (HCC-2998 colon): 2.19 µM
- TGI (HCC-2998 colon): 4.94 µM
- GI50 (PC-3 prostate): 6.36 µM
- TGI (PC-3 prostate): > 64.8 µM
- GI50 (SN12C renal): 1.7 µM
- TGI (SN12C renal): 3.19 µM
- GI50 (U251 CNS): 6.7 µM
- TGI (U251 CNS): > 67.1 µM
- GI50 (K-562 leukemia): 2.2 µM
- TGI (K-562 leukemia): > 100 µM
- GI50 (SF-539 CNS): 0.35 µM
- TGI (SF-539 CNS): 3.05 µM
- GI50 (A549 NSCLC): 3.42 µM
- TGI (A549 NSCLC): 32 µM
- GI50 (HOP-92 NSCLC): 0.821 µM
- TGI (HOP-92 NSCLC): 22.5 µM
- GI50 (NCI-H522 lung): 14.9 µM
- TGI (NCI-H522 lung): > 24.6 µM
- GI50 (T-47D breast): 6.18 µM
- TGI (T-47D breast): > 100 µM
- GI50 (OVCAR-8 ovarian): 3.02 µM
- TGI (OVCAR-8 ovarian): > 27.5 µM
- GI50 (SF-295 CNS): 2.21 µM
- TGI (SF-295 CNS): 5.23 µM
- GI50 (ACHN renal): 14.1 µM
- TGI (ACHN renal): 29.3 µM
- GI50 (HCT-116 colon): 1.52 µM
- TGI (HCT-116 colon): 2.85 µM
- GI50 (BT-549 breast): 2.07 µM
- TGI (BT-549 breast): 4.76 µM
- GI50 (MALME-3M melanoma): 2.8 µM
- TGI (MALME-3M melanoma): 9.92 µM
- GI50 (MCF7 breast): 3.35 µM
- TGI (MCF7 breast): > 19.7 µM
- GI50 (CAKI-1 renal): 2.5 µM
- GI50 (HS 578T breast): 2.24 µM
- TGI (HS 578T breast): 5.31 µM
- GI50 (TK-10 renal): 1.63 µM
- TGI (TK-10 renal): 3.42 µM
- GI50 (SNB-75 CNS): 3.54 µM
- TGI (SNB-75 CNS): > 100 µM
- GI50 (NCI-H226 lung): 1.95 µM
- TGI (NCI-H226 lung): 4.39 µM
- GI50 (OVCAR-5 ovarian): 5.5 µM
- TGI (OVCAR-5 ovarian): > 100 µM
- GI50 (DU-145 prostate): 2.8 µM
- TGI (DU-145 prostate): > 23 µM
- GI50 (HT29 colon): 2.7 µM
- TGI (HT29 colon): > 100 µM
- GI50 (RPMI-8226 leukemia): 2.16 µM
- TGI (RPMI-8226 leukemia): 7.06 µM
- GI50 (M14 melanoma): 1.46 µM
- TGI (M14 melanoma): 2.78 µM
- GI50 (IGROV1 ovarian): 13.4 µM
- TGI (IGROV1 ovarian): > 22 µM
- GI50 (SW-620 colon): 2.72 µM
- TGI (SW-620 colon): > 22.1 µM
- GI50 (HOP-62 NSCLC): 2.14 µM
- TGI (HOP-62 NSCLC): 5.06 µM
- GI50 (HCT-15 colon): 13.9 µM
- TGI (HCT-15 colon): > 63.9 µM
